Measurements: US5965622A, “Desformoterol and process for its preparation” (Sepracor Inc., priority 1998, dated 1999)
Entries after “also recorded” stand apart in the source; their conditions may differ. Where two headings read alike, the source gives them in different places.

What was measured:
[1] = molecular target: human β2-adrenergic receptor (Homo sapiens, UniProt P07550); experiment: binding to human β2-adrenergic receptor (competition curves); details: for adrenergic receptor agonist selectivity, in words: binding studies
Sequence of human β2-adrenergic receptor (P07550 whole entry): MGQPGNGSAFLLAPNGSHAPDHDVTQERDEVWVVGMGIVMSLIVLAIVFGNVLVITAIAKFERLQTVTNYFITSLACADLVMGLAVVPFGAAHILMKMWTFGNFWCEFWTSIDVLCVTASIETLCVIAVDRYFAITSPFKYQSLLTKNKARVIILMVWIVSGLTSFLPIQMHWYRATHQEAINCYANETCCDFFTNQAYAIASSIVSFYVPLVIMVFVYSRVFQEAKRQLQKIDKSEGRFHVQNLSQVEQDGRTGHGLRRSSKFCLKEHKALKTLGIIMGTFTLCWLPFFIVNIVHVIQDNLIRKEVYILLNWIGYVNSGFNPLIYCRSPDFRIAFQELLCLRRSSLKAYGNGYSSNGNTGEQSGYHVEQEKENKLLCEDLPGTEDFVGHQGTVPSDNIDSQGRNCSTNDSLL
Method: (§1) The four isomers of desformoterol, (R,R)-, (S,S)-, (R,S)-, and (S,R)-, and a 1:1 mixture of the (R,R)- and the (S,S)-enantiomers, were screened, in duplicate, at three concentrations (10^-9, 10^-7, 10^-5 M) for binding to human β1 and β2 -adrenergetic receptors. The compounds were then tested at ten concentrations in duplicate in order to obtain full competition curves. Reference compounds were simultaneously tested at eight concentrations.

[2] = molecular target: human β1-adrenergic receptor (Homo sapiens, UniProt P08588); experiment: binding to human β1-adrenergic receptor (competition curves)
Sequence of human β1-adrenergic receptor (P08588 whole entry): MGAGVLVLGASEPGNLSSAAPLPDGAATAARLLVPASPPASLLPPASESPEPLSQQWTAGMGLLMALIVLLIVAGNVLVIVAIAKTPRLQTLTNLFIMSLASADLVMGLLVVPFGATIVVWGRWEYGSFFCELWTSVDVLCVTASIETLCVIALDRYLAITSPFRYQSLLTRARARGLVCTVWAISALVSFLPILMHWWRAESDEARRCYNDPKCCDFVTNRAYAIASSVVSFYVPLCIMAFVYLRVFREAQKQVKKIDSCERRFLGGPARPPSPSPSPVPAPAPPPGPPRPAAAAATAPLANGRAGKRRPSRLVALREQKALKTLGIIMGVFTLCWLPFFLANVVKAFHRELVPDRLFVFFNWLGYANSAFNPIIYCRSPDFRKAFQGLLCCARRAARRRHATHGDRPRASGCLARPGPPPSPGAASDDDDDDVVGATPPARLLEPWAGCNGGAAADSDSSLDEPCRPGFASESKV
Method: as §1

[3] = when inhaled; background statement; cited from earlier work
[4] = stability of desformoterol according to conditions; type: physicochemical; details: pH of the environment
Text: It has been observed that the stability of desformoterol can vary according to conditions.

[5] = human β2-adrenergic receptor, ten concentrations in duplicate (reference compounds eight), read-out: IC50 β2
[6] = human β1-adrenergic receptor, ten concentrations in duplicate (reference compounds eight), read-out: IC50 β1

Row | SMILES | adrenergic receptor agonist selectivity, in words [1] | binding/affinity at β2 site, in words ([1]; human β2-adrenergic receptor) | IC50 [1, 5] | β1/β2 Selectivity ([1]; ratio of IC50 values β1/β2) | binding/affinity at β1 site, in words ([2]; human β1-adrenergic receptor) | further results
1 | COc1ccc(C[C@@H](C)NC[C@H](O)c2ccc(O)c(N)c2)cc1 (relative stereo) [(R,R)-/(S,S)-Racemate of Desformoterol] | highly selective β-adrenergic receptor agonists | significant binding only at the β2 -site | 0.0813 µM | 63 |  | IC50 [2, 6]: 5.14 µM
2 | COc1ccc(C[C@H](C)NC[C@H](O)c2ccc(O)c(N)c2)cc1 [(R,S)-Desformoterol] |  |  | 3.14 µM | < 1 | Neither (R,S)- nor (S,R)-desformoterol showed high affinity for the β1 receptor; also recorded: comparable to that of atenolol at the β1 -site | IC50 [2, 6]: 1.79 µM
3 | COc1ccc(C[C@@H](C)NC[C@H](O)c2ccc(O)c(N)c2)cc1 [(R,R)-Desformoterol, (R,R)-3-amino-4-hydroxy-α-[[[2-(4-methoxyphenyl)-1-methylethyl]amino]methyl]-benzenemethanol] | highly selective β-adrenergic receptor agonists | significant binding primarily at the β2 -site |  | 89 |  | IC50 [1]: 0.0356 µM; selectivity (β1/β2) for the β2-receptor ([1]; ratio of IC50 values β1/β2): approximately 89 fold; IC50 [2]: 3.18 µM
4 | COc1ccc(C[C@@H](C)NC[C@H](O)c2ccc(O)c(NC=O)c2)cc1 (relative stereo) [Formoterol] |  |  |  |  |  | bronchodilating effect, in words [3]: long lasting bronchodilating effect
5 | COc1ccc(CC(C)NCC(O)c2ccc(O)c(N)c2)cc1 (stereo not drawn) [desformoterol, 3-Amino-4-hydroxy-α-[[[2-(4-methoxyphenyl)-1-methylethyl]amino]methyl]-benzenemethanol] | highly selective β2 -adrenergic receptor agonist |  |  |  |  | pH of maximum stability [4]: 2
6 | COc1ccc(C[C@@H](C)NC[C@@H](O)c2ccc(O)c(N)c2)cc1 [(S,R)-Desformoterol] |  |  | 1.89 µM |  | Neither (R,S)- nor (S,R)-desformoterol showed high affinity for the β1 receptor | inhibition at 10 µM ([2]; at 10^-5 M): 22%
7 | COc1ccc(C[C@H](C)NC[C@@H](O)c2ccc(O)c(N)c2)cc1 [(S,S)-Desformoterol] |  | lacked affinity for both β-adrenergic sites |  | < 6 | lacked affinity for both β-adrenergic sites | IC50 [1]: > 10 µM; IC50 [2]: 64.7 µM
